Source: patent US9932331B2, “Phenyl tetrahydroisoquinoline compound substituted with heteroaryl” (TAISHO PHARMACEUTICAL CO., LTD, priority 2014, dated 2018)
Structures can show the parent of a compound that is named as a salt.

Molecular target: T1, human NHE3 (Homo sapiens, UniProt P48764)
T1 sequence (P48764 26-834): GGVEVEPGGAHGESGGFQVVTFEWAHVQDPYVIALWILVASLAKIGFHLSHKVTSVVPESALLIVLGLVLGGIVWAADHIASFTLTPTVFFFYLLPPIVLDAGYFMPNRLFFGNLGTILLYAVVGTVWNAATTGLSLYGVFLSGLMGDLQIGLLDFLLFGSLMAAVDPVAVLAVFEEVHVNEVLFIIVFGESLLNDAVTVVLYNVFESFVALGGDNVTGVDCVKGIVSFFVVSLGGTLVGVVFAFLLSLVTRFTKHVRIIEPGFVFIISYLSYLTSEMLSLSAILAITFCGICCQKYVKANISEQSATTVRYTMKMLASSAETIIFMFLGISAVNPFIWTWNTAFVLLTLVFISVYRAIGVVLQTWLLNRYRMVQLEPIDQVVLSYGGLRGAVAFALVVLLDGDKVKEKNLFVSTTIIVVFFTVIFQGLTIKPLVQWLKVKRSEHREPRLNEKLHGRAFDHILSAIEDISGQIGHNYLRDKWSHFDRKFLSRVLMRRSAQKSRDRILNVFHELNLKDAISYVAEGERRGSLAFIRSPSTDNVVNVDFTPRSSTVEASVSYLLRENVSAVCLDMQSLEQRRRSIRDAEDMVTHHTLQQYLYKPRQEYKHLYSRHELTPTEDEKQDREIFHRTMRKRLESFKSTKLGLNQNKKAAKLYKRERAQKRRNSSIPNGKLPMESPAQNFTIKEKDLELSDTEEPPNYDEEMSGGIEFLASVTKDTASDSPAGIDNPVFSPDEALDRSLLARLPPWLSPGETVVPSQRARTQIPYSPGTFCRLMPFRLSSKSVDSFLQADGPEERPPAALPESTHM
Experiment: NHE3 inhibition test (recovery of intracellular pH in cell line stably expressing human NHE3)
Assay type: cell-based
Conditions: OK cells deficient in endogenous NHE stably expressing human NHE3; BCECF fluorescence, initial rate of pH recovery; read-out: human NHE3 inhibitory activity IC50
Description: (1) Preparation of Cell Line Deficient in Endogenous NHE
The cell line deficient in endogenous NHE was prepared according to the method of Jacques Pouyssegur et al. (Proc. Natl. Acad. Sci. USA. 1984, Vol. 81, 4833-4837) using opossum kidney (OK) cells (ATCC).
(2) Preparation of Expression Plasmid and Cell Line Stably Expressing Human NHE3
The expression plasmid was constructed by inserting a human NHE3 (SLC9A3, Accession No. NM_004174) cDNA sequence (GeneCopoeia, Inc.) into a pcDNA3.2/V5-DEST vector (Life Technologies Corp.).
The OK cells deficient in endogenous NHE were transfected with the constructed human NHE3 expression plasmid to prepare stably expressing cells. The transfection was carried out by electroporation using a Nucleofector 2b device (Lonza Group Ltd.). A stably expressing cell line was selected in medium supplemented with 500 μg/mL Geneticin (Life Technologies Corp.) and isolated.
NHE3 activity measurement method using cell: The activity was determined by using the NHE3-mediated recovery of intracellular pH occurring after intracellular acidification, as an index. The intracellular pH was measured by a partial modification of the pH-sensitive fluorescent indicator method reported by Tsien et al. (Proc. Natl. Acad. Sci. USA., 1984, 81, 7436-7440).
The cell line stably expressing human NHE3 was inoculated on a poly-D-lysine-coated 96-well plate (Greiner Bio-one) and cultured overnight. […] Then, Hank's balanced salt buffer solution containing 0.25 μM BCECF-AM (Dojindo Laboratories) was added to the cells, which were then incubated at 37° C. for 30 minutes. […] The cells thus incubated in the NH4Cl buffer solution were washed with NH4Cl-free buffer solution (133.8 mM choline chloride, […], 5 mM glucose, 4.7 mM KCl, 1.25 mM CaCl2, 1.25 mM MgCl2, 0.97 mM K2HPO4, 0.23 mM KH2PO4, pH 7.4) to decrease the intracellular pH. After the washing step, 70 μL of a test compound solution prepared with the NH4Cl-free buffer solution was added to the cells, and 70 iμL of sodium ion-containing buffer solution (133.8 mM NaCl, 10 mM HEPES, 5 mM glucose, 4.7 mM KCl, 1.25 mM CaCl2, 1.25 mM MgCl2, 0.97 mM Na2HPO4, 0.23 mM NaH2PO4, pH 7.4) was added thereto in a measurement system FDSS6000 (Hamamatsu Photonics K.K.) to start the recovery of pH. The recovery of intracellular pH was monitored using BCECF fluorescence (excitation wavelength: 480 nm, fluorescence wavelength: 520 to 560 nm), and the initial rate of the pH recovery was plotted. The recovery of pH without test compound was defined as the maximum recovery, and the test compound concentration necessary to inhibit 50% of the maximum recovery was calculated as an IC50 value.

Compound	IC50
Cc1nnc(-c2cccc([C@@H]3CN(C)Cc4c(Cl)cc(Cl)cc43)c2)[nH]1 [Example 3-1, (4S)-6,8-Dichloro-2-methyl-4-[3-(3-methyl-1H-1,2,4-triazol-5-yl)phenyl]-1,2,3,4-tetrahydroisoquinoline hydrochloride]	49.1 nM
Cc1nc(-c2cccc([C@@H]3CN(C)Cc4c(Cl)cc(Cl)cc43)c2)no1 [Example 4-1, (4S)-6,8-Dichloro-2-methyl-4-[3-(5-methyl-1,2,4-oxadiazol-3-yl)phenyl]-1,2,3,4-tetrahydroisoquinoline hydrochloride]	554 nM
Cc1cc(-c2cccc([C@@H]3CN(C)Cc4c(Cl)cc(Cl)cc43)c2)on1 [Example 5-1, (4S)-6,8-Dichloro-2-methyl-4-[3-(3-methyl-1,2-oxazol-5-yl)phenyl]-1,2,3,4-tetrahydroisoquinoline hydrochloride]	760 nM
CN1Cc2c(Cl)cc(Cl)cc2[C@H](c2cccc(-c3cn(CCOCCOCCNC(=O)NCCCCNC(=O)NCCOCCOCCn4cc(-c5cccc([C@@H]6CN(C)Cc7c(Cl)cc(Cl)cc76)c5)nn4)nn3)c2)C1 [Example 6-1, 1,1′-Butane-1,4-diylbis[3-(2-{2-[2-(4-{3-[(4S)-6,8-dichloro-2-methyl-1,2,3,4-tetrahydroisoquinolin-4-yl]phenyl}-1H-1,2,3-triazol-1-yl)ethoxy]ethoxy}ethyl)urea]]	2.4 nM
CN1Cc2c(Cl)cc(Cl)cc2[C@H](c2cccc(-c3cn(CCOCCOCCNC(=O)CCC(=O)NCCOCCOCCn4cc(-c5cccc([C@@H]6CN(C)Cc7c(Cl)cc(Cl)cc76)c5)nn4)nn3)c2)C1 [Example 6-3, N,N′-Bis(2-{2-[2-(4-{3-[(4S)-6,8-dichloro-2-methyl-1,2,3,4-tetrahydroisoquinolin-4-yl]phenyl}-1H-1,2,3-triazol-1-yl)ethoxy]ethoxy}ethyl)butanediamide hydrochloride]	301 nM
CN1Cc2c(Cl)cc(Cl)cc2[C@H](c2cccc(-c3cn(CCOCCOCCNC(=O)[C@H](O)[C@@H](O)C(=O)NCCOCCOCCn4cc(-c5cccc([C@@H]6CN(C)Cc7c(Cl)cc(Cl)cc76)c5)nn4)nn3)c2)C1 [Example 6-6, (2R,3R)—N,N′-Bis(2-{2-[2-(4-{3-[(4S)-6,8-dichloro-2-methyl-1,2,3,4-tetrahydroisoquinolin-4-yl]phenyl}-1H-1,2,3-triazol-1-yl)ethoxy]ethoxy}ethyl)-2,3-dihydroxybutanediamide hydrochloride]	75 nM
CN1Cc2c(Cl)cc(Cl)cc2[C@H](c2cccc(-c3cn(CCOCCOCCNC(=O)[C@@H](O)[C@H](O)[C@H](O)[C@@H](O)C(=O)NCCOCCOCCn4cc(-c5cccc([C@@H]6CN(C)Cc7c(Cl)cc(Cl)cc76)c5)nn4)nn3)c2)C1 [Example 6-7, (2R,3S,4R,5S)—N,N′-Bis(2-{2-[2-(4-{3-[(4S)-6,8-dichloro-2-methyl-1,2,3,4-tetrahydroisoquinolin-4-yl]phenyl}-1H-1,2,3-triazol-1-yl)ethoxy]ethoxy}ethyl)-2,3,4,5-tetrahydroxyhexanediamide hydrochloride]	1.1 nM
CN1Cc2c(Cl)cc(Cl)cc2[C@H](c2cccc(-c3cn(CCOCCOCCOCCNC(=O)NCCNC(=O)NCCNC(=O)NCCOCCOCCOCCn4cc(-c5cccc([C@@H]6CN(C)Cc7c(Cl)cc(Cl)cc76)c5)nn4)nn3)c2)C1 [Example 6-13, 1,1′-[Carbonylbis(iminoethane-2,1-diyl)]bis {3-[2-(2-{2-[2-(4-{3-[(4S)-6,8-dichloro-2-methyl-1,2,3,4-tetrahydroisoquinolin-4-yl]phenyl}-1H-1,2,3-triazol-1-yl)ethoxy]ethoxy}ethoxy)ethyl]urea}hydrochloride]	2.1 nM
CN1Cc2c(Cl)cc(Cl)cc2[C@H](c2cccc(-c3cn(CCOCCOCCOCCOCCNC(=O)NCCCCNC(=O)NCCOCCOCCOCCOCCn4cc(-c5cccc([C@@H]6CN(C)Cc7c(Cl)cc(Cl)cc76)c5)nn4)nn3)c2)C1 [Example 7-1, 1,1′-Butane-1,4-diylbis {3-[14-(4-{3-[(4S)-6,8-dichloro-2-methyl-1,2,3,4-tetrahydroisoquinolin-4-yl]phenyl}-1H-1,2,3-triazol-1-yl)-3,6,9,12-tetraoxatetradec-1-yl]urea}hydrochloride]	2.2 nM
CN1Cc2c(Cl)cc(Cl)cc2[C@H](c2cccc(-c3cnc(NCCOCCOCCNC(=O)NCCCCNC(=O)NCCOCCOCCNc4ncc(-c5cccc([C@@H]6CN(C)Cc7c(Cl)cc(Cl)cc76)c5)cn4)nc3)c2)C1 [Example 7-3, 1,1′-Butane-1,4-diylbis {3-[2-(2-{2-[(5-{3-[(4S)-6,8-dichloro-2-methyl-1,2,3,4-tetrahydroisoquinolin-4-yl]phenyl}pyrimidin-2-yl)amino]ethoxy}ethoxy)ethyl]urea}hydrochloride]	11 nM
CN1Cc2c(Cl)cc(Cl)cc2[C@H](c2cccc(-c3ccc(NCCOCCOCCNC(=O)NCCCCNC(=O)NCCOCCOCCNc4ccc(-c5cccc([C@@H]6CN(C)Cc7c(Cl)cc(Cl)cc76)c5)cn4)nc3)c2)C1 [Example 7-7, 1,1′-Butane-1,4-diylbis {3-[2-(2-{2-[(5-{3-[(4S)-6,8-dichloro-2-methyl-1,2,3,4-tetrahydroisoquinolin-4-yl]phenyl}pyridin-2-yl)amino]ethoxy}ethoxy)ethyl]urea}]	6.8 nM
CN1Cc2c(Cl)cc(Cl)cc2[C@H](c2cccc(-c3ccc(NCCOCCOCCNC(=O)Nc4ccc(NC(=O)NCCOCCOCCNc5ccc(-c6cccc([C@@H]7CN(C)Cc8c(Cl)cc(Cl)cc87)c6)cn5)cc4)nc3)c2)C1 [Example 7-8, 1,1′-Benzene-1,4-diylbis{3-[2-(2-{2-[(5-{3-[(4S)-6,8-dichloro-2-methyl-1,2,3,4-tetrahydroisoquinolin-4-yl]phenyl}pyridin-2-yl)amino]ethoxy}ethoxy)ethyl]urea}]	1080 nM
CN1Cc2c(Cl)cc(Cl)cc2[C@H](c2cccc(-c3cc(OCCOCCOCCNC(=O)Nc4ccc(NC(=O)NCCOCCOCCOc5cc(-c6cccc([C@@H]7CN(C)Cc8c(Cl)cc(Cl)cc87)c6)ncn5)cc4)ncn3)c2)C1 [Example 7-11, 1,1′-Benzene-1,4-diylbis {3-[2-(2-(2-{2-[(6-{3-[(4S)-6,8-dichloro-2-methyl-1,2,3,4-tetrahydroisoquinolin-4-yl]phenyl}pyrimidin-4-yl)oxy]ethoxy}ethoxy)ethyl]urea} trifluoroacetate]	33.5 nM
CN1Cc2c(Cl)cc(Cl)cc2[C@H](c2cccc(-c3cc(OCCOCCOCCNC(=O)NCCCCNC(=O)NCCOCCOCCOc4cc(-c5cccc([C@@H]6CN(C)Cc7c(Cl)cc(Cl)cc76)c5)ncn4)ncn3)c2)C1 [Example 7-12, 1,1′-Butane-1,4-diylbis {3-[2-(2-{2-[(6-{3-[(4S)-6,8-dichloro-2-methyl-1,2,3,4-tetrahydroisoquinolin-4-yl]phenyl}pyrimidin-4-yl)oxy]ethoxy}ethoxy)ethyl]urea} tetrahydrochloride]	7.5 nM
